This is an account of results in ChEMBL document CHEMBL3621076, “Synthesis and Characterization in Vitro and in Vivo of (l)-(Trimethylsilyl)alanine Containing Neurotensin Analogues” (J Med Chem, 2015).

Calls of active or inactive are those of the source. No cut-off for these calls is given here. Square brackets hold non-standard residues; d marks the D form. Peptide text beside a SMILES is read from it. Pro(4-sila,4,4-Me2) = C[Si]1(C)CN[C@H](C(=O)O)C1; Ala(SiMe3) = C[Si](C)(C)C[C@H](N)C(=O)O; NMeR = CN[C@@H](CCCNC(=N)N)C(=O)O; hLys = NCCCCC[C@H](N)C(=O)O A value given as a limit tells only on which side of the number the result lay.

Data set [1] deals with Rattus norvegicus. Put plainly: Reduction in arterial blood pressure in Sprague-Dawley rat at 0.1 mg/kg, iv measured over 4 mins. The class given is functional.
Data set [2] is described as follows: Half life in rat plasma at 0.156 mM by UPLC/MS method. The class given is ADME, cell-free.
In data set [3] the test system is Rattus norvegicus. Put plainly: Analgesic activity in Sprague-Dawley rat assessed as increase in response latency to thermal noxious stimulus at 30 ug/kg, it measured every 10 mins for up to 1 hr post dose by tail immersion test. Format: functional, organism-based.
The target of data set [4] is T1, Neurotensin receptor type 1 (Homo sapiens, UniProt P30989). Nature of the data set: Agonist activity at human NTS1 receptor expressed in CHOK1 cells co-expressing Galphaq-RlucII(121)/Gbeta1/GFP10-Ggamma1 assessed as Galpha-q stimulation incubated for 15 mins by BRET assay. The class given is cell-based, CHO-K1.
In data set [5] the target is Neurotensin receptor type 2 (Homo sapiens, UniProt O95665). Put plainly: Displacement of [125I]-Tyr3-NT from human NTS2 receptor expressed in 1321N1 cell membranes incubated for 30 mins by gamma-counting based competitive radioligand binding assay.
In data set [6] the test system is Rattus norvegicus. Nature of the data set: Analgesic activity in Sprague-Dawley rat model of formalin-induced persistent tonic pain model assessed as reduction in weighted pain score during inflammatory phase at 30 ug/kg, it by formalin test. The class given is functional, organism-based.
In data set [7] the test system is Rattus norvegicus. Put plainly: Reduction in arterial blood pressure in Sprague-Dawley rat assessed as hypotensive effect during pressor phase returning to baseline saline values within <1 mins at 0.1 mg/kg, iv measured over 4 mins. Format: functional, organism-based.
For data set [8], the target named is T1, Neurotensin receptor type 1. Nature of the data set: Agonist activity at human NTS1 receptor expressed in CHOK1 cells co-expressing hNTS1-GFP10/RlucII-beta-arrestin 2 assessed as beta-arrestin2 recruitment incubated for 15 mins by BRET assay. Format: cell-based, CHO-K1.
Data set [9] has as its system Rattus norvegicus. Nature of the data set: Analgesic activity in Sprague-Dawley rat assessed as maximal possible effect for reduction in sensitivity to heat stimulation at 30 ug/kg, it measured every 10 mins for up to 1 hr post dose by tail immersion test. More on the design: scale not given: the % may be the effect or the level left. Format: functional.
In data set [10] the test system is Rattus norvegicus. Nature of the data set: Analgesic activity in Sprague-Dawley rat model of formalin-induced persistent tonic pain model assessed as reduction in weighted pain score during acute phase at 30 ug/kg, it by formalin test. The class given is functional, organism-based.
Data set [11] addresses T1, Neurotensin receptor type 1. Nature of the data set: Displacement of [125I]-Tyr3-NT from human NTS1 receptor expressed in CHOK1 cell membranes incubated for 30 mins by gamma-counting based competitive radioligand binding assay. On the set-up: species or system CHO-K1.
Data set [12] addresses Neurotensin receptor type 1 (Rattus norvegicus, UniProt P20789). Put plainly: Agonist activity at […] NTS1 in Sprague-Dawley rat ileum assessed as inhibition of carbachol-induced contraction. Format: tissue-based.
Data set [13] relates to Rattus norvegicus. Nature of the data set: Reduction in arterial blood pressure in Sprague-Dawley rat assessed as sustained and pronounced hypotensive phase at 0.1 mg/kg, iv measured over 4 mins. Format: functional, organism-based.
The species named for data set [14] is Rattus norvegicus. Nature of the data set: Analgesic activity in rat by tail flick test. Format: functional.

Neurotensin receptor type 1 (Rattus norvegicus, UniProt P20789), sequence (P20789 whole entry): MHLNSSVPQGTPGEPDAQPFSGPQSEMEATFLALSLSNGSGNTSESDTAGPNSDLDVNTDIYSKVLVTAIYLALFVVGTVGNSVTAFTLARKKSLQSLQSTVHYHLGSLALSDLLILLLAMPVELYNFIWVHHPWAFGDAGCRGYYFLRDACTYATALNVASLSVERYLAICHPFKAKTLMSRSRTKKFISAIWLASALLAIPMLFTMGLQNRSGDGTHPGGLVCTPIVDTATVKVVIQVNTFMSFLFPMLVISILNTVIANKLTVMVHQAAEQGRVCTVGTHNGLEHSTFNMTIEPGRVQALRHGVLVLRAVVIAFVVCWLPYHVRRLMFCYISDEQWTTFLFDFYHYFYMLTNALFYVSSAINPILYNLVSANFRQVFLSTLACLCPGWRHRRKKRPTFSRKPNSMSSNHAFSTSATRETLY
T1 sequence (P30989 whole entry): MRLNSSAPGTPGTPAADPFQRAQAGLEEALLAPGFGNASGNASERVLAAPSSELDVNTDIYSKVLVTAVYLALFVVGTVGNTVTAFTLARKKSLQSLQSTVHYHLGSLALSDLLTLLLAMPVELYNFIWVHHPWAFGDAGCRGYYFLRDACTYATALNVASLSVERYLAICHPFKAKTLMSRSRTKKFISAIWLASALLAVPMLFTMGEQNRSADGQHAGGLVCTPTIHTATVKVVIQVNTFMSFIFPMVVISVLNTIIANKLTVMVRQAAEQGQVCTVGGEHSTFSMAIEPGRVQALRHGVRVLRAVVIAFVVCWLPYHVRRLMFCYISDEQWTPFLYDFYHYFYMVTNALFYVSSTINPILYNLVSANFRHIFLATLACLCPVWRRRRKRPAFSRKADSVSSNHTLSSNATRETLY
Neurotensin receptor type 2, sequence (O95665 whole entry): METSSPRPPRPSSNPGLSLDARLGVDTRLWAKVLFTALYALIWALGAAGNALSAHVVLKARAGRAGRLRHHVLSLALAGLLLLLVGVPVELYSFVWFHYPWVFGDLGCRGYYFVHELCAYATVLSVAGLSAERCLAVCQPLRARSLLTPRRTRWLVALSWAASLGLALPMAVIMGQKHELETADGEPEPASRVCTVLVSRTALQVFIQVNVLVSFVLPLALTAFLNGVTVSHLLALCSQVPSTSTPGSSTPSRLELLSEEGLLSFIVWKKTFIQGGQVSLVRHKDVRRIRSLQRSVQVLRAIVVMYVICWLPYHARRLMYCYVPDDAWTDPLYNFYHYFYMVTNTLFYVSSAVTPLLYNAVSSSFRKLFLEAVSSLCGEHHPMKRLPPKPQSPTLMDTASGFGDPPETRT

In the case of `CC[C@H](C)[C@H](NC(=O)[C@H](Cc1ccc(O)cc1)NC(=O)[C@@H]1CCCN1C(=O)[C@H](CCCNC(=N)N)NC(=O)[C@@H](N)CCCNC(=N)N)C(=O)N[C@@H](CC(C)C)C(=O)O`, in the data set on Rattus norvegicus [1], the Activity is 30 mmHg. In addition, in data set [2], the half-life at 156 µM was found to be 1.95 min.

For `CC[C@H](C)[C@H](NC(=O)[C@H](Cc1ccc(O)cc1)NC(=O)[C@@H]1CCCN1C(=O)[C@H](CCCCN)NC(=O)[C@@H](N)CCCCN)C(=O)N[C@@H](C[Si](C)(C)C)C(=O)O` (H-KKPYI[Ala(SiMe3)]-OH), the outcome with Rattus norvegicus [3], in the data set on Rattus norvegicus [6], in the data set on Rattus norvegicus [7], in the data set on Rattus norvegicus [1], in the data set on Rattus norvegicus [10] and in the data set with Rattus norvegicus [13] was Active. In addition, the results for the EC50 in data set [4], in data set [8] and in data set [12] were 1.51 nM, 1.49 nM and 1.41 nM, respectively. Moreover, the IC50 was 0.26 nM in data set [5] and 0.02 nM in data set [11]. The Activity with Rattus norvegicus [9] worked out at 40%. This compound returned a half-life at 156 µM in [2] of 1.33 min.

In the case of `CC(C)C[C@H](NC(=O)[C@H](C[Si](C)(C)C)NC(=O)[C@H](Cc1ccc(O)cc1)NC(=O)[C@@H]1CCCN1C(=O)[C@H](CCCCN)NC(=O)[C@@H](N)CCCCN)C(=O)O` (H-KKPY[Ala(SiMe3)]L-OH), the EC50 in data set [4] was 169 nM; in data set [8], 26.6 nM; in data set [12], above 10000 nM. In addition, the IC50 in data set [5] was determined as 405 nM; in data set [11], 93.8 nM. The half-life at 156 µM in data set [2] was determined as 2.4 min.

On to `C[Si](C)(C)C[C@H](NC(=O)[C@H](C[Si](C)(C)C)NC(=O)[C@H](Cc1ccc(O)cc1)NC(=O)[C@@H]1CCCN1C(=O)[C@H](CCCCN)NC(=O)[C@@H](N)CCCCN)C(=O)O` (H-KKPY[Ala(SiMe3)][Ala(SiMe3)]-OH), for which the 50% effective concentration (EC50) in data set [4] amounted to 11 nM; in data set [8], 0.34 nM; in data set [12] it was 22.5 nM. The half-maximal inhibitory concentration (IC50) came to 28.9 nM in data set [5] and 15.4 nM in data set [11]. The compound also gave a half-life at 156 µM in [2] of 2.83 min.

Regarding `CN[C@@H](CCCNC(=N)N)C(=O)N[C@@H](CCCCN)C(=O)N1CCC[C@H]1C(=O)N[C@@H](Cc1ccc(O)cc1)C(=O)N[C@@H](C[Si](C)(C)C)C(=O)N[C@@H](CC(C)C)C(=O)O` (H-[NMeR]KPY[Ala(SiMe3)]L-OH), the half-maximal effective concentration (EC50) in data set [4] was 204 nM; in data set [8], 4.19 nM; in [12], above 10000 nM. For the same compound, the IC50 is 29.7 nM in data set [5] and 246 nM in [11]. In addition, the half-life at 156 µM in data set [2] was above 120 min.

For the compound `CC(C)C[C@H](NC(=O)[C@H](C[Si](C)(C)C)NC(=O)[C@H](Cc1ccc(O)cc1)NC(=O)[C@@H]1C[Si](C)(C)CN1C(=O)[C@H](CCCCN)NC(=O)[C@@H](N)CCCCCN)C(=O)O` (H-[hLys]K[Pro(4-sila,4,4-Me2)]Y[Ala(SiMe3)]L-OH), the concentration giving a half-maximal response (EC50) in data set [4] was above 10000 nM; in [8], above 1000 nM; in data set [12] it was above 10000 nM. Further, the IC50 in data set [5] was 1420 nM; in data set [11] it was 968 nM. Besides, the half-life at 156 µM in data set [2] was 3.52 min.

The compound `CO[C@@]12CC[C@@]3(C[C@@H]1[C@](C)(O)C(C)(C)C)[C@H]1Cc4ccc(O)c5c4[C@@]3(CCN1CC1CC1)[C@H]2O5` [BUPRENORPHINE] displayed an ED50 in the data set listed under Rattus norvegicus [14] of 4 nmol.

`CN1CC[C@]23c4c5ccc(O)c4O[C@H]2C(=O)CC[C@H]3[C@H]1C5` [HYDROMORPHONE] displayed an ED50 in the data set filed under Rattus norvegicus [14] of 78 nmol.

In the data set filed under Rattus norvegicus [14], `CN1CC[C@]23c4c5ccc(O)c4O[C@H]2[C@@H](O)C=C[C@H]3[C@H]1C5` [MORPHINE] registered an ED50 of 7.4 nmol.
